Experimental data: ChEMBL document CHEMBL1158090, “Cytotoxic cycloartane triterpene saponins from Actaea asiatica” (J Nat Prod, 2006)
The source made the active and inactive calls. No cut-off for these calls is given here.

Assays:
Assay type in all cases: functional, cell-based
MCF7 = assay: Cytotoxicity against human MCF7 cells
[1] = (§1) Cytotoxicity against human Hep G2 cells; conditions: HepG2
HepG2 = assay: as §1

SMILES | IC50 (MCF7) [µM] | IC50 [1] [µM] | Activity (MCF7) | Activity (HepG2)
CC(=O)O[C@@H]1C[C@@]23C[C@@]24CC[C@H](O[C@@H]2OC[C@@H](O)[C@H](O)[C@H]2O)C(C)(C)[C@@H]4CC=C3[C@]2(C)C[C@@H]3OC(C(=O)C(C)C)=C[C@@H](C)[C@@H]3[C@@]12C [ASIATICOSIDE B] | 8.32 | 9.74 | – | –
C[C@@H]1C[C@]2(OCC[C@]3(C)O[C@H]23)O[C@H]2C[C@@]3(C)C4=CC[C@H]5C(C)(C)[C@@H](O[C@@H]6OC[C@@H](O)[C@H](O)[C@H]6O)CC[C@@]56C[C@@]46CC[C@]3(C)[C@@H]12 | – | – | inactive | inactive
CC(=O)O[C@@H]1C[C@@]23C[C@@]24CC[C@H](O[C@@H]2OC[C@@H](O)[C@H](O)[C@H]2O)C(C)(C)[C@@H]4CC[C@H]3[C@]2(C)C[C@@H]3OC(C(=O)C(C)C)=C[C@@H](C)[C@@H]3[C@@]12C [ASIATICOSIDE A] | 9.78 | 9.9 | – | –
